How the values were obtained:
AKT = AKT (Homo sapiens (Human), UniProt P31749); assay: AKT Enyzme Assay; format: biochemical; settings: His-AKT (Full Length), 160 uM ATP, mobility shift (Caliper)
Protocol: A TTP Mosquito liquid handling instrument is used to place 125 nl of the appropriate concentration of inhibitor in 100% DMSO (for a dose response curve calculation) into each well of a 384-well plate.
The reaction is incubated for 90 min at 25 C, and then stopped by the addition of 70 μl of Stop buffer (100 mM HEPES pH 7.5, 0.015% Brij-35, 10 mM EDTA (Sigma, E7889)).
The plate is read on a Caliper LC 3000 in an Off-Chip mobility shift assay format, using the following parameters for a 12-sipper chip: screening pressure −2.3 psi, upstream voltage −500, and downstream voltage −3000. These conditions cause unphosphorylated substrate and phosphorylated product peptide to resolve as separate peaks allowing direct measurement of percentage of conversion of substrate to product. The percent conversion can be plotted against concentration of inhibitor to produce a sigmoidal dose response curve, from which an IC50 can be calculated.

P70S6K = P70S6K (Homo sapiens (Human), UniProt P23443, T412E); assay: P70S6K Enzyme Assay; format: biochemical; settings: P70S6K T412E mutant, 24 μM ATP, mobility shift (Caliper)
Protocol: P70S6K inhibitor compounds are diluted and plated in 96 well plates. […] The reaction is incubated for 90 min at 25° C., before the addition of 10 mM EDTA to stop the reaction. The proportion of substrate and product (phosphorylated) peptide is analysed on a Caliper Life Sciences Lab Chip 3000, using a pressure of −1.4 psi, and upstream and downstream voltages of −3000 and −700 respectively. Product peaks are resolved before substrate peaks on the resulting chromatograms.

Chain of P70S6K (P23443 1-421 T412E): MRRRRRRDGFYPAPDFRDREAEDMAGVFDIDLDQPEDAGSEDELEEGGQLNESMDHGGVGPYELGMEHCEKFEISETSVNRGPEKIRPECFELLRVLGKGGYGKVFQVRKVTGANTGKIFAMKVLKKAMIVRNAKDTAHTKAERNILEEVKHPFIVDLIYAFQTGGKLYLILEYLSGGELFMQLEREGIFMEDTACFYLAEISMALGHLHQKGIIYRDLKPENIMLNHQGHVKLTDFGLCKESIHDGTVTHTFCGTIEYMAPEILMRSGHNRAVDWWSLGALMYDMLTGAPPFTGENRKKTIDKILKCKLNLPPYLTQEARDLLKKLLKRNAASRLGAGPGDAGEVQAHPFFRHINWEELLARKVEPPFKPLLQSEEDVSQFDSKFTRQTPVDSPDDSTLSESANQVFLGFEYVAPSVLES
Chain of AKT (P31749 whole entry): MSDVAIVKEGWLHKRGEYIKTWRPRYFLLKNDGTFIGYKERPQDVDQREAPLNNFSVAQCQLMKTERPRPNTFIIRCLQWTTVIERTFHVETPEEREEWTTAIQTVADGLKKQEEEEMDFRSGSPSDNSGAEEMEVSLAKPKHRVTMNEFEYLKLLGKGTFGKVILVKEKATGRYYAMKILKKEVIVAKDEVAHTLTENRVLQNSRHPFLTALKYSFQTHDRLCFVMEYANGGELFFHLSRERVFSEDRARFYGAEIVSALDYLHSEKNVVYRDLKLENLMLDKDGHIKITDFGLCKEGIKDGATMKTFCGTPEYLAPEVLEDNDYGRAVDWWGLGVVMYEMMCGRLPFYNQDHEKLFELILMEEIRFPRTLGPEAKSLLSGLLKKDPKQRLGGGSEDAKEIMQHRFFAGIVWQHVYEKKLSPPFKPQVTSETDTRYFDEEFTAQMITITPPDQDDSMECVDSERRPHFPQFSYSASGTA

IC50 (AKT) [nM]	IC50 (P70S6K) [nM]	Compound
900	52	NC(=O)c1ccc(N[C@@H]2CNCC[C@H]2c2ccc(F)cc2)c2cncnc12 (single isomer, unassigned) [Example 81]
6400	770	NC(=O)c1ccc(N2CCN(c3cccc(F)c3)CC2)c2cncnc12 [Example 95, 5-[4-(3-fluoro-phenyl)-piperazin-1-yl]-quinazoline-8-carboxylic acid amide]
> 100000	20000	CN1CCC(Nc2ccc(C(N)=O)c3ncncc23)C1 (racemic) [Example 58, 5-((1-methylpyrrolidin-3-yl)amino)quinazoline-8-carboxamide]
12000	59.2	NC(=O)c1ccc(NCc2cccc(Cl)c2)c2cncnc12 [Example 63, 5-((3-chlorobenzyl)amino)quinazoline-8-carboxamide]
570	33	NC(=O)c1ccc(NC2CNCCC2c2ccc(F)c(Cl)c2)c2cncnc12 (centres unmarked) [Example 76, 5-((4-(3-chloro-4-fluorophenyl)piperidin-3-yl)amino)quinazoline-8-carboxamide]
8200	190	Cc1cccc([C@@H]2CN(c3ccc(C(N)=O)c4ncncc34)C[C@H]2CO)c1 [Example 67, 5-((3S,4R)-3-(hydroxymethyl)-4-(m-tolyl)pyrrolidin-1-yl)quinazoline-8-carboxamide]
5700	350	NC(=O)c1ccc(N[C@@H]2CNCC[C@H]2c2ccc(F)c(Cl)c2)c2cncnc12 (single isomer, unassigned) [Example 78]
5600	89	NC(=O)c1ccc(NCCc2ccccc2)c2cncnc12 [Example 98, 5-(phenethylamino)quinazoline-8-carboxamide]
130	8.1	NC(=O)c1ccc(NC2CNCCC2c2ccc(Cl)c(F)c2)c2cncnc12 (centres unmarked) [Example 75, 5-((4-(4-chloro-3-fluorophenyl)piperidin-3-yl)amino)quinazoline-8-carboxamide]
> 100000	1000	NC(=O)c1ccc(N2CCN(c3ccc(F)c(F)c3)CC2)c2cncnc12 [Example 92, 5-[4-(3,4-difluoro-phenyl)-piperazin-1-yl]-quinazoline-8-carboxylic acid amide]
23000	11000	NC(=O)c1ccc(N2CCN(c3cccc(C(F)(F)F)c3)CC2)c2cncnc12 [Example 109, 5-[4-(3-trifluoromethylphenyl)-piperazin-1-yl]-quinazoline-8-carboxylic acid amide]
9000	390	Cc1cccc(C2CCNCC2Nc2ccc(C(N)=O)c3ncncc23)c1 (centres unmarked) [Example 73, 5-((4-(m-tolyl)piperidin-3-yl)amino)quinazoline-8-carboxamide]
2500	550	NC(=O)c1ccc(NC2CCNCC2c2ccc(F)cc2)c2cncnc12 (centres unmarked) [Example 70, 5-((3-(4-fluorophenyl)piperidin-4-yl)amino)quinazoline-8-carboxamide]
> 100000	22000	Cc1cccc(N2CCC(Nc3ccc(C(N)=O)c4ncncc34)CC2)c1 [Example 57, 5-((1-(m-tolyl)piperidin-4-yl)amino)quinazoline-8-carboxamide]
> 100000	12000	NC(=O)c1ccc(N2CCN(c3ccc(F)c(Cl)c3)CC2)c2cncnc12 [Example 94, 5-[4-(3-chloro-4-fluorophenyl)-piperazin-1-yl]-quinazoline-8-carboxylic acid amide]
14000	220	CN(CCc1ccccc1)c1ccc(C(N)=O)c2ncncc12 [Example 103, 5-[methyl(phenethyl)amino]quinazoline-8-carboxamide]
4800	290	NC(=O)c1ccc(NCCc2ccc(F)cc2)c2cncnc12 [Example 100, 5-[2-(4-fluorophenyl)ethylamino]quinazoline-8-carboxamide]
> 100000	10000	NC(=O)c1ccc(N2CCN(c3cccc(Cl)c3)CC2)c2cncnc12 [Example 96, 5-[4-(3-chloro-phenyl)-piperazin-1-yl]-quinazoline-8-carboxylic acid amide]
15000	3000	NC(=O)c1ccc(N2CCN(c3ccccc3)CC2)c2cncnc12 [Example 91, 5-[4-phenyl-piperazin-1-yl]-quinazoline-8-carboxylic acid amide]
> 100000	2300	NC(=O)c1ccc(N2CCN(c3ccc(F)cc3)CC2)c2cncnc12 [Example 108, 5-[4-(4-fluorophenyl)-piperazin-1-yl]-quinazoline-8-carboxylic acid amide]
2100	140	NC(=O)c1ccc(NC2CNCCC2c2cccc(C(F)(F)F)c2)c2cncnc12 (centres unmarked) [Example 74, 5-((4-(3-(trifluoromethyl)phenyl)piperidin-3-yl)amino)quinazoline-8-carboxamide]
> 100000	56000	NCC1CCCN(c2ccc(C(N)=O)c3ncncc23)C1 (racemic) [Example 56, 5-(3-(aminomethyl)piperidin-1-yl)quinazoline-8-carboxamide]
> 100000	100	NC(=O)c1ccc(NC2CNCC2c2cccc(OC(F)(F)F)c2)c2cncnc12 (centres unmarked) [Example 72, 5-((4-(3-(trifluoromethoxy)phenyl)pyrrolidin-3-yl)amino)quinazoline-8-carboxamide]
> 100000	24000	NC(=O)c1ccc(N2CCN(c3ccc(C(F)(F)F)cc3)CC2)c2cncnc12 [Example 90, 5-[4-(4-Trifluoromethyl-phenyl)-piperazin-1-yl]-quinazoline-8-carboxylic acid amide]
> 100000	710	NC(=O)c1ccc(N2CCC(OCc3ccccc3)C2)c2cncnc12 (racemic) [Example 65, 5-(3-(benzyloxy)pyrrolidin-1-yl)quinazoline-8-carboxamide]
70000	1600	NC(=O)c1ccc(NCc2cccnc2)c2cncnc12 [Example 62, 5-((pyridin-3-ylmethyl)amino)quinazoline-8-carboxamide]
> 100000	> 100000	Cc1ccc(Cl)cc1N1CCN(c2ccc(C(N)=O)c3ncncc23)CC1 [Example 111, 5-[4-(5-chloro-2-methylphenyl)-piperazin-1-yl]-quinazoline-8-carboxylic acid amide]
> 100000	87	NC(=O)c1ccc(NCCCCc2ccccc2)c2cncnc12 [Example 102, 5-(4-phenylbutylamino)quinazoline-8-carboxamide]
